Laboratory results from BindingDB's records for doi:10.1016/j.bmc.2019.03.049 (Zhuhai Campus of Zunyi Medical University, 2019).

Target: Hepatocyte growth factor receptor (Homo sapiens) (UniProt P08581)
Experiment: Inhibition of c-MET (unknown origin) using FAM-labelled peptide as substrate measured after 10 mins by mobility shift assay

Chain of Hepatocyte growth factor receptor (Homo sapiens) (P08581 whole entry, looked up): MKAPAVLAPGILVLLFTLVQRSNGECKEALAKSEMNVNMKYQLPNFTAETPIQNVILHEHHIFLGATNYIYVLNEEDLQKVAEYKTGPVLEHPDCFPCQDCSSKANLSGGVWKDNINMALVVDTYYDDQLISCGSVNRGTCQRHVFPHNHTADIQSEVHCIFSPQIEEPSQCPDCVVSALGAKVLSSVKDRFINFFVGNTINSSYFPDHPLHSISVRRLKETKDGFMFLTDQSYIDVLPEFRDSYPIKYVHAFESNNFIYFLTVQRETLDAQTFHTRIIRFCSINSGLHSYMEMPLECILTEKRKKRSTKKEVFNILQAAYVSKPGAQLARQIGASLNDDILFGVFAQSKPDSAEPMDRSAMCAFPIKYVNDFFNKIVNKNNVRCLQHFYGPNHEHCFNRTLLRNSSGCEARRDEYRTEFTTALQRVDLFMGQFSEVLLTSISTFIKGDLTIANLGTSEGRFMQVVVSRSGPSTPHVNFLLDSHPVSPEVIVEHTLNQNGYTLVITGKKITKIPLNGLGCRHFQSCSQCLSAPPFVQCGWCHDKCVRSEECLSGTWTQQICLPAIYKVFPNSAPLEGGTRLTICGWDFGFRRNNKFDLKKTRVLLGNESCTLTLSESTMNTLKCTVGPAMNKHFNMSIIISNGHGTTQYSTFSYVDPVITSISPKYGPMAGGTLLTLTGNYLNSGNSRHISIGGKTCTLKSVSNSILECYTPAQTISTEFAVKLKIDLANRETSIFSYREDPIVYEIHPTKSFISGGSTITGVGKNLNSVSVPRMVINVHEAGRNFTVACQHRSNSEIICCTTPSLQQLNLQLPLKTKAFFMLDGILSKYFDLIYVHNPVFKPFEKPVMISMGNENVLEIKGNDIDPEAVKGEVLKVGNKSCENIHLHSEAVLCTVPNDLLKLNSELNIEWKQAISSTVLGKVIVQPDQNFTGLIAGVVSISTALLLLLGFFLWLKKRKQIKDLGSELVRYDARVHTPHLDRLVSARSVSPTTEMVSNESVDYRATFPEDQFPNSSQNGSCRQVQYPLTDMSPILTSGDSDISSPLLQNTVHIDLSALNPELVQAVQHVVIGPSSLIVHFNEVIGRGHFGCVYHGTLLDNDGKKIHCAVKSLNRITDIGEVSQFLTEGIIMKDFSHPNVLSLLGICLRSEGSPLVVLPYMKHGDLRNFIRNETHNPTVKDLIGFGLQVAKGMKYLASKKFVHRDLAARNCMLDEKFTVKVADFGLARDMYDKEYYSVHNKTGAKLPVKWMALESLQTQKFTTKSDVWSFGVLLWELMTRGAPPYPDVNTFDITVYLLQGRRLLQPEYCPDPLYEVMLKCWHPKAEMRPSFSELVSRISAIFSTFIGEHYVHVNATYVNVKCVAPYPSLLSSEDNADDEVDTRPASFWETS

| IC50 | SMILES |
| --- | --- |
| 3.35 µM | COc1cc2c(Oc3ccc(C4SCC(=O)N4NC(=O)Nc4ccc(F)cc4F)cc3)ccnc2cc1OCCCN1CCOCC1 (stereo not drawn) |
| 4.52 µM | COc1cc2c(Oc3ccc(C4SCC(=O)N4NC(=O)Nc4ccccc4)cc3)ccnc2cc1OCCCN1CCOCC1 (stereo not drawn) |
| 4.3 µM | COc1cc2c(Oc3ccc(C4SCC(=O)N4NC(=O)Nc4ccc(F)cc4)cc3)ccnc2cc1OCCCN1CCOCC1 (stereo not drawn) |
